A short description of series [1]: RP, Waters ACQUITY UPLC BEH C18, 100 × 1 mm, 1.7 µm, 50 °C, 0.3 mL/min, estimated dead time 0.17 min; A: water + 10 mM ammonium bicarbonate; B: 10% water + 90% methanol + 10 mM ammonium bicarbonate; gradient (min/%B) 0/0 15/100 21/100 22/0 30/0. As to conditions: stereoisomer not certain.
Series [2] is described as follows: RP, Waters ACQUITY UPLC BEH C18, 100 × 1 mm, 1.7 µm, 50 °C, 0.3 mL/min, estimated dead time 0.17 min; A: water + 0.1% formic acid + 20 mM ammonium formate; B: methanol + 0.1% formic acid + 20 mM ammonium formate; gradient (min/%B) 0/0 15/100 21/100 22/0 30/0. Conditions: stereoisomer not certain.

Each structure is given as a SMILES string.

With `Oc1ccc(C(F)(F)F)cc1` [4-Trifluoromethylphenol], the values for the LC retention time in series [1] and in series [2] were 12.6 min and 12.8 min, respectively.

As for `COC(=O)CC(O)(CCCC(C)(C)O)C(=O)OC1C(OC)=CC23CCCN2CCc2cc4c(cc2C13)OCO4` (stereo not drawn) [Homoharringtonine], the LC retention time in series [1] was 14 min; in series [2] it was 9.4 min.

`CC1CCc2cc(F)cc3c(=O)c(C(=O)O)cn1c23` (stereo not drawn) [Flumequine]: the LC retention time in series [1] was 8.91 min; in series [2], 11.8 min.

In the case of `OCCN1CCN(CCC=C2c3ccccc3Sc3ccc(C(F)(F)F)cc32)CC1` [Flupentixol], the LC retention time was 17.3 min in series [1] and 14.7 min in series [2].

With `COC(=O)Nc1nc2ccc(C(=O)c3ccccc3)cc2[nH]1` [Mebendazole], the values for the LC retention time in series [1] and in series [2] were 12.9 min and 12.5 min, respectively.

In the case of `CC1CCC2(OC1)OC1CC3C4CC=C5CC(O)CCC5(C)C4CCC3(C)C1C2C` (stereo not drawn) [Diosgenin], the LC retention time in series [1] is 19.6 min; in series [2], 19 min.

For the compound `CS(=O)(=O)c1ccc(C(=O)C2C(=O)CCCC2=O)c(Cl)c1COCC(F)(F)F` [Tembotrione], the LC retention time in series [1] was 15.6 min; in series [2], 13.4 min.

As to `NC(=NCCCCCCN=C(N)N=C(N)Nc1ccc(Cl)cc1)N=C(N)Nc1ccc(Cl)cc1` [Chlorohexidine], the LC retention time in series [1] is 6.38 min; in series [2], 12.2 min.

With `CC(C)C1(C)N=C(c2nc3ccccc3cc2C(=O)O)NC1=O` (stereo not drawn) [Imazaquin], the LC retention time in series [1] is 9.01 min; in series [2], 11.8 min.

Regarding `CNc1cnn(-c2cccc(C(F)(F)F)c2)c(=O)c1Cl` [Norflurazon], the figures for the LC retention time in series [1] and in series [2] were 13.5 min and 13.3 min, respectively.

With `COc1nc(C)nc(NC(=O)NS(=O)(=O)c2ccccc2OCCCl)n1` [Triasulfuron], the values for the LC retention time in series [1] and in series [2] were 9.67 min and 11.5 min, respectively.

Consider `Cc1cccc(Nc2ccncc2S(=O)(=O)NC(=O)NC(C)C)c1` [Torasemide], for which the LC retention time was 12.4 min in series [1] and 11.6 min in series [2].

In the case of `CCC(=O)C(CC(C)N(C)C)(c1ccccc1)c1ccccc1` (stereo not drawn) [Methadone], the LC retention time was 18.2 min in series [1] and 13.1 min in series [2].

For the compound `C=C(C)C1C2OC(=O)C1C1(O)CC3OC34C(=O)OC2C14C` (stereo not drawn) [Picrotoxinin], the LC retention time is 9.36 min in series [1] and 9.25 min in series [2].

For the compound `CCOC(=O)c1ccc(N(C)C)cc1` [Ethyl-4-dimethylaminobenzoate], the results for the LC retention time in series [1] and in series [2] were 14.6 min and 14.3 min, respectively.

Consider `O=C(O)c1ccccc1O` [Salicylic acid], for which the LC retention time is 4.78 min in series [1] and 9.72 min in series [2].

With `Nc1c(Cl)cc(C(F)(F)F)cc1Cl` [2,6-Dichloro-4-trifluoromethylaniline], the results for the LC retention time in series [1] and in series [2] were 15.9 min and 16.2 min, respectively.

As for `CNc1nc(NC(C)C)nc(SC)n1` [Desmetryn], the LC retention time is 13.1 min in series [1] and 11.7 min in series [2].

Consider `COc1ccc(NC(=O)N(C)C)cc1Cl` [Metoxuron], for which the LC retention time in series [1] is 10.7 min; in series [2], 10.6 min.

Consider `C#CC1(O)CCC2C3CCC4=CC(=O)CCC4C3CCC21C` (stereo not drawn) [Norethindrone], for which the LC retention time was 14.2 min in series [1] and 13.9 min in series [2].

With `C=C1CC2C(CCC3(C)C(=O)CCC23)C2(C)C=CC(=O)C=C12` (stereo not drawn) [Exemestane], the LC retention time is 14.3 min in series [1] and 14 min in series [2].

As for `CCCCCCCCCCOC(=O)c1ccccc1C(=O)OCCCCCCCCCC` [Didecylphthalat], the results for the LC retention time in series [1] and in series [2] were 21.4 min and 20.1 min, respectively.

With `CCOP(=S)(OCC)ON=C(C#N)c1ccccc1` [Phoxim], the LC retention time in series [1] was 14.4 min; in series [2], 15.9 min.

As to `COc1cc(C)c(C(=O)c2c(OC)ccc(Br)c2C)c(OC)c1OC` [Metrafenone], the LC retention time was 16.4 min in series [1] and 16 min in series [2].

On to `CC(C)(C)c1cccc(C(C)(C)C)c1O` [2,6-di-tert-Butylphenol], for which the figures for the LC retention time in series [1] and in series [2] were 16.6 min and 16.2 min, respectively.

For `NC(=O)N1c2ccccc2C=Cc2cc(O)ccc21` [2-Hydroxycarbamazepine], the LC retention time in series [1] was 10.8 min; in series [2], 10.7 min.

Consider `CC=C(C)C(=O)OC1CCC2(C)C3CCC4C5(O)CC(O)C6(O)C(CN7CC(C)CCC7C6(C)O)C5(O)CC42OC13O` (stereo not drawn) [Cevadine], for which the LC retention time was 16.4 min in series [1] and 12.6 min in series [2].

On to `Oc1ccc(C(c2ccc(O)cc2)(C(F)(F)F)C(F)(F)F)cc1` [Bisphenol AF], for which the LC retention time in series [1] was 14.7 min; in series [2], 15.9 min.

Regarding `Cc1cccc2n[nH]nc12` [Tolyltriazole], the LC retention time is 14.6 min in series [1] and 9.9 min in series [2].

`CC(C)(C)c1cc([N+](=O)[O-])cc([N+](=O)[O-])c1O` [Dinoterb]: the LC retention time in series [1] is 12.6 min; in series [2], 15.7 min.

For the compound `CCCCCCCCCC[N+](C)(C)[O-]` [N,N-Dimethyldecylamine-N-oxide], the LC retention time in series [1] was 15.2 min; in series [2], 13.8 min.

For `C#CC1(OC(C)=O)CCC2C3CCC4=CC(=O)CCC4C3CCC21C` (stereo not drawn) [Norethisterone acetate], the LC retention time is 15.7 min in series [1] and 15.4 min in series [2].

Regarding `CC1COc2c(N3CCN(C)CC3)c(F)cc3c(=O)c(C(=O)O)cn1c23` (stereo not drawn) [Ofloxacin], the results for the LC retention time in series [1] and in series [2] were 9.6 min and 8.04 min, respectively.

For `CC[N+]1([O-])CCCC1CNC(=O)c1cc(S(=O)(=O)CC)c(N)cc1OC` (stereo not drawn) [Amisulpride N-Oxide], the LC retention time is 8.43 min in series [1] and 8.4 min in series [2].

For the compound `NCCc1ccc(O)c(O)c1` [Dopamine], the values for the LC retention time in series [1] and in series [2] were 6.92 min and 6.88 min, respectively.

For the compound `CCN(CCCCOC(=O)c1ccc(OC)c(OC)c1)C(C)Cc1ccc(OC)cc1` (stereo not drawn) [Mebeverine], the LC retention time in series [1] was 17.1 min; in series [2], 12.1 min.

`O=C(O)c1nc(Cl)ccc1Cl` [Clopyralid]: the LC retention time was 3.37 min in series [1] and 6.09 min in series [2].

On to `Cc1cccc(Cl)c1NC(=O)N(C)C` [3-(2-CHLORO-6-METHYLPHENYL)-1,1-DIMETHYLUREA], for which the LC retention time in series [1] was 10.1 min; in series [2], 10 min.

Consider `CC12C=CC(=O)C=C1CCC1C3CC(O)C(O)(C(=O)CO)C3(C)CC(O)C12F` (stereo not drawn) [Triamcinolone], for which the LC retention time in series [1] was 10.1 min; in series [2], 10 min.

On to `Cc1nc2ccccc2s1` [2-Methylbenzothiazole], for which the LC retention time in series [1] was 12.6 min; in series [2], 12.3 min.

Take `CC1CC2(OC2C)C(=O)OC2CCN3CC=C(COC(=O)C1(C)O)C23` (stereo not drawn) [Jacobine]: the LC retention time in series [1] is 10.1 min; in series [2], 6.52 min.

Regarding `CN(CC=CC#CC(C)(C)C)Cc1cccc2ccccc12` [Terbinafine], the LC retention time in series [1] was 18.7 min; in series [2], 14 min.

As to `Cc1c(C(C)C)c(=O)n(-c2ccccc2)n1C` [Propyphenazone], the LC retention time is 12.6 min in series [1] and 12.3 min in series [2].

Take `CC=C1C2C=C(C)CC1(N)c1ccc(=O)[nH]c1C2` (stereo not drawn) [Huperzin A]: the figures for the LC retention time in series [1] and in series [2] were 11.1 min and 7.5 min, respectively.

Turning to `NCC(O)COc1ccc(CC(N)=O)cc1` (stereo not drawn) [Atenolol-desisopropyl], the LC retention time in series [1] is 5.61 min; in series [2], 12.3 min.

Take `COC1C=COC2(C)Oc3c(C)c(O)c4c(O)c(c5c(nc6cc(C)ccn65)c4c3C2=O)NC(=O)C(C)=CC=CC(C)C(O)C(C)C(O)C(C)C(OC(C)=O)C1C` (stereo not drawn) [Rifaximin]: the LC retention time in series [1] was 14.6 min; in series [2], 14.7 min.

`Nc1ccc(Cc2ccc(N)c(Cl)c2)cc1Cl` [2,2'-dichloro-4,4'-methylenedianiline]: the LC retention time in series [1] is 14.3 min; in series [2], 13.9 min.

With `O=C1CC2OCC=C3CN4CCC56c7ccccc7N1C5C2C3CC46` (single isomer, unassigned; (-)) [(-)-Strychnine], the LC retention time in series [1] is 12.3 min; in series [2] it was 7.73 min.

In the case of `CC(C)(C#N)c1cc(Cn2cncn2)cc(C(C)(C)C#N)c1` [Anastrozole], the values for the LC retention time in series [1] and in series [2] were 11.5 min and 11.3 min, respectively.

In the case of `Cn1cnc2c1c(=O)n(CCCC(=O)O)c(=O)n2C` [1-(3-carboxypropyl)-3,7-dimethylxanthine], the LC retention time is 6.58 min in series [1] and 8.38 min in series [2].

Take `Cc1ccc(NC(=O)c2ccc(CN3CCN(C)CC3)cc2)cc1Nc1nccc(-c2cccnc2)n1` [Imatinib]: the LC retention time in series [1] is 13.9 min; in series [2], 11.2 min.

For the compound `Cc1ccnc(NS(=O)(=O)c2ccc(N)cc2)n1` [Sulfamerazine], the LC retention time was 5.61 min in series [1] and 7.14 min in series [2].

As for `COCCCCC(=NOCCN)c1ccc(C(F)(F)F)cc1` [Fluvoxamine], the LC retention time in series [1] is 15.3 min; in series [2] it was 13.5 min.

Consider `CCc1cnc(C2=NC(C)(C(C)C)C(=O)N2)c(C(=O)O)c1` (stereo not drawn) [Imazethapyr], for which the results for the LC retention time in series [1] and in series [2] were 8 min and 11.2 min, respectively.

(Values after the RepoRT retention time repository (doi:10.1021/acs.analchem.1c00972).)
